Tests used:
[1] = Stability of Compound (I) itself to temperature and humidity (formulation study); assay type: physicochemical
[2] = biological target: prostaglandin I2 (PGI2) receptor (Homo sapiens, UniProt P43119); details: known, PTL 1; cited from earlier work
Chain of prostaglandin I2 (PGI2) receptor (P43119 whole entry): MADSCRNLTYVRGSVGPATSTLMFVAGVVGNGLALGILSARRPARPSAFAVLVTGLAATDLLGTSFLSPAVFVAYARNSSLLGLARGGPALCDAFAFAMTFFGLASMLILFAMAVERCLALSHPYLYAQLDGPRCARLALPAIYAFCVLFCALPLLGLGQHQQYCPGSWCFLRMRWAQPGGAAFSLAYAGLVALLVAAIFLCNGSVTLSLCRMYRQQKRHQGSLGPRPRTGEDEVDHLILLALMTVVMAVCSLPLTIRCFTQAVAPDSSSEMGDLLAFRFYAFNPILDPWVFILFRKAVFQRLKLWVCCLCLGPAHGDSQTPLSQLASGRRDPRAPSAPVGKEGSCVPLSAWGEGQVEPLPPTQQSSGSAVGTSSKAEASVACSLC

## CC(C)N(CCCCOCC(=O)NS(C)(=O)=O)c1cnc(-c2ccccc2)c(-c2ccccc2)n1 [Compound (I), 2-{4-[N-(5,6-diphenylpyrazin-2-yl)-N-isopropylamino]butyloxy}-N-(methylsulfonyl)acetamide]
[1]
  Stability of Compound (I) itself, in words: stable to temperature and humidity
[2]
  PGI2 receptor agonistic activity, in words: excellent
